According to US20120214778A1 (priority 2009, published 2012):

Experiments:
[1] = system: oestrogen receptor positive advanced breast cancer; assay: CONFIRM phase III study, fulvestrant 500 mg vs 250 mg: efficacy; details: for Number progressed / Number progressed (%): progressed or died at data cut-off; for Median DoR: from randomisation, patients with OR;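 as to all read-outs here: efficacy outcomes summarised by randomised treatment arm using the full analysis set of patients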
Procedure: The primary outcome variable TTP; secondary variables were ORR, CBR, DoR, DoCB and OS.
For the primary endpoint TTP, the primary analysis was an unadjusted log-rank test and the secondary analysis was a Cox proportional hazard model, adjusted for treatment and other predefined covariates.
For OS, the unadjusted log-rank test was performed. For ORR and CBR, a logistic regression model with treatment factor only was fitted. […] For HRQoL endpoints, a longitudinal model with treatment and other covariates was used.
For efficacy and HRQoL endpoints, summaries and analyses were carried out according to the randomised treatment i.e., using the Full Analysis Set. For safety endpoints, summaries and analyses were carried out according to the treatment actually received, i.e., using the safety analysis set. The primary endpoint was also analysed in the per protocol set (PPS).
Time to progression is the time between randomisation and the earliest of progression or death from any cause.

[2] = system: advanced breast cancer; details: 250 mg, cited from earlier work
[3] = CONFIRM phase III study: safety and tolerability (adverse events); type: in vivo, postmenopausal women
Text: Outcome variables for safety were frequency and severity of adverse events (AEs), including pre-specified AEs of interest.
Patients could be discontinued from study treatment and assessments at any time at the discretion of the investigators. Patients were also free to discontinue their participation in the study at any time, without prejudice to further treatment. Specific reasons for discontinuing a patient from this study, and the procedures to be followed when a patient discontinued or was incorrectly enrolled, are listed in Section 3.3.5 of the CSP. For patients who discontinued, it was noted whether they were assessed after study medication was stopped, and whether they were asked about the reason(s) for their discontinuation and about the presence of any adverse events (AEs). If possible, they were seen and assessed by an investigator. AEs were followed up for 56 days after the last injection.

With `C[C@]12CC[C@@H]3c4ccc(O)cc4C[C@@H](CCCCCCCCC[S+]([O-])CCCC(F)(F)C(F)(F)F)[C@H]3[C@@H]1CC[C@@H]2O` (stereo partly drawn) [fulvestrant, 7alpha-[9-(4,4,5,5,5-pentafluoropentylsulfinyl)-nonyl]estra-1,3,5, (10)-triene-3, 17beta-diol] the “Time to progression (months): 25% quartile” value ([1]; 250 mg) was 2.7 months, the “Time to progression (months): 75% quartile” value ([1]; 250 mg) was 11.9 months and the “expected DoCB (EDoCB)” value ([1]; 250 mg) was 7.24 months. For the same molecule, the “proportion of patients with a best objective response of progressive disease” value ([1]; 250 mg) was 44.7%, the “Median TTP” value ([1]; 250 mg im every 28 days, N = 374) was 5.5 months and the “Percentage of patients progression free at 6 months” value ([1]; 250 mg) was 45%. For the same molecule, the “% patients progression free at 12 months” value ([1]; 250 mg) was 25%, the “% patients progression free at 12 months” value ([1]; 250 mg, listed as Fulvestrant) was 25% and the “Percentage of patients progression free at 18 months” value ([1]; 250 mg) was 14%. For the same molecule, the “% patients alive at 24 months” value ([1]; 250 mg) was “fulvestrant 250 mg = 49%”, the “Percentage of patients progression free at 24 months” value ([1]; 250 mg) was 11% and the Number progressed ([1]; 250 mg, N = 374) was 321. For the same molecule, the “Number progressed (%)” value ([1]; 250 mg, N = 374) was 85.8%, the “Median DoR” value ([1]; 250 mg) was 250 mg = 16.4 months and the “Time to progression (months): 25% quartile” value ([1]; 500 mg) was 2.8 months. The “Time to progression (months): 75% quartile” value ([1]; 500 mg) was 16.6 months, the “expected DoCB (EDoCB)” value ([1]; 500 mg) was 9.83 months and the “proportion of patients with a best objective response of progressive disease” value ([1]; 500 mg) was 38.7%. For the same molecule, the “reduction in risk of death” value ([1]; 500 mg compared with 250 mg) was 16%, the “reduction in risk of progression” value ([1]; 500 mg compared with 250 mg) was 20% and the “Median TTP” value ([1]; 500 mg im days 0, 14, 28 then every 28 days, N = 362) was 6.5 months. For the same molecule, the “Ratio of EDoR (95% CI)” value ([1]; 500 mg vs 250 mg, from randomisation to progression) was “Ratio of EDoR = 0.894 (95% CI 0.479-1.667); p = 0.724”, the “Percentage of patients progression free at 6 months” value ([1]; 500 mg) was 51% and the “% patients progression free at 12 months” value ([1]; 500 mg) was 34%. The “% patients progression free at 12 months” value ([1]; 500 mg, listed as Fulvestrant) was 34%, the “Percentage of patients progression free at 18 months” value ([1]; 500 mg) was 23% and the “% patients alive at 24 months” value ([1]; 500 mg) was “% patients alive at 24 months: fulvestrant 500 mg = 53%;”. For the same molecule, the “Percentage of patients progression free at 24 months” value ([1]; 500 mg) was 16%, the Number progressed ([1]; 500 mg, N = 362) was 297 and the “Number progressed (%)” value ([1]; 500 mg, N = 362) was 82.0%. For the same molecule, the “Median DoR” value ([1]; 500 mg) was “Median DoR^c: fulvestrant 500 mg = 19.4 months; fulvestrant”, the “efficacy compared with anastrozole” value ([2]; Studies 20/21) was “non-inferior to anastrozole” and the “Median TTP” value ([2]; combined analysis of Studies 20/21) was 5.5 months. For the same molecule, the “gastrointestinal disturbances (pre-specified AE), patients” value ([3]; 250 mg) was “approximately 20%”, the “joint disorders (pre-specified AE), patients” value ([3]; 250 mg) was roughly 19% and the “gastrointestinal disturbances (pre-specified AE), patients” value ([3]; 500 mg) was “approximately 20%”. For the same molecule, the “joint disorders (pre-specified AE), patients” value ([3]; 500 mg) was roughly 19%, the tolerability ([3]; 500 mg) was “well tolerated” and the “dose dependence of adverse events” value ([3]; 500 mg vs 250 mg) was “no evidence for dose dependence for any AE”.
